This passage reports Toluene-solubility results from patent US7691925B2, “Pressure-sensitive adhesive composition, pressure-sensitive adhesive sheets and surface protecting film” (priority 2004, dated 2010).

The structures appear in SMILES notation.

The conditions of the data set: 1 part ionic liquid in 9 parts toluene, 25° C., naked eyes. As to the method: “Toluene-soluble” in the present invention means that an ionic liquid is soluble in toluene, more specifically, refers to such nature that an ionic liquid is uniformly dissolved in toluene upon preparation of a 10 weight % solution of an ionic-liquid in toluene.
9 Parts by weight of toluene (guaranteed grade manufactured by Wako Pure Chemical Industries, Ltd.) was added to 1 part by weight of an ionic liquid, and this was mixed and stirred under a normal temperature (25° C.) for 10 minutes, and allowed to stand for 30 minutes.
Thereafter, solubility was assessed with naked eyes, and toluene-solubility was determined. In assessment criteria, the state where no separated substance is observed, and a substance is uniformly dissolved was assessed as “soluble” (existence of toluene-solubility).
For `CCCCC[N+](CCCCC)(CCCCC)CCCCC.O=S(=O)([O-])C(F)(F)F` [ionic liquid (1), tetra-n-pentylammonium trifluoromethanesulfonate], the Toluene-solubility entry was “possession of toluene-solubility was confirmed”. For the compound `CCCCCC[N+](CCCCCC)(CCCCCC)CCCCCC.O=S(=O)([O-])C(F)(F)F` [ionic liquid (2), tetra-n-hexylammonium trifluoromethanesulfonate], the Toluene-solubility entry is reported as “possession of toluene-solubility was confirmed”. The value for `CCCCCCC[N+](CCCCCCC)(CCCCCCC)CCCCCCC.O=S(=O)([O-])C(F)(F)F` [ionic liquid (3), tetra-n-heptylammonium trifluoromethanesulfonate] was “possession of toluene-solubility was confirmed”; that for `CCCCCCCC[P+](CCCCCCCC)(CCCCCCCC)CCCCCCCC.O=S(=O)([O-])C(F)(F)F` [ionic liquid (4), tetra-n-octylphosphonium trifluoromethanesulfonate] was “possession of toluene-solubility was confirmed”; that for `CCCC[n+]1cccc(C)c1.O=S(=O)([N-]S(=O)(=O)C(F)(F)F)C(F)(F)F` [ionic liquid (6), 1-butyl-3-methylpyridinium bis(trifluoromethanesulfon)imide, reference compound] was “possession of toluene-solubility was not confirmed”.
